# Source: US9499502B2, “5-substituted iminothiazines and their mono- and dioxides as BACE inhibitors, compositions, and their use” (Merck Sharp & Dohme Corp., priority 2011, dated 2016)
# Molecular target: soluble human BACE1 catalytic domain (Homo sapiens (Human), UniProt P56817)
# Assay: BACE1 HTRF FRET Assay
# Conditions: BACE1 Ki (nM)
# Chain of soluble human BACE1 catalytic domain (P56817 75-416): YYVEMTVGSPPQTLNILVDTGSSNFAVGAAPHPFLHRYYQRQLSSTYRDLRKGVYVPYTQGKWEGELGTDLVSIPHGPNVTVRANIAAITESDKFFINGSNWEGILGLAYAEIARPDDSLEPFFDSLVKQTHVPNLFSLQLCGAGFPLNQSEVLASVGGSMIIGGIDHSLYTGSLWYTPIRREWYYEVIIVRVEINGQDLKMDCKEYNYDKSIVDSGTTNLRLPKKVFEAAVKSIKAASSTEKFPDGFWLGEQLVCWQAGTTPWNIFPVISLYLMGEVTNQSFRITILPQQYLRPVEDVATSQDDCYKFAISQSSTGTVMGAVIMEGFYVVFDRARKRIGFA
row,Ki,Structure (SMILES)
1,3860 nM,"Cc1nc2cc(CC3(C)C(=N)N[C@](C)(c4cc(F)ccc4F)CS3(=O)=O)ccc2o1 (single isomer, unassigned) [Example 32a-a]"
2,4640 nM,"Cc1nc2cc(CC3(C)C(=N)N[C@](C)(c4cc(F)ccc4F)CS3(=O)=O)ccc2o1 (single isomer, unassigned) [Example 32a-b]"

# Same assay, conditions: BACE1 Ki (nM), Ki calculated from IC50 using the Cheng-Prusoff equation
row,Structure (SMILES),Ki
1,CC1(C)C(=N)N[C@](C)(c2cc(NC(=O)c3ccc(F)cn3)ccc2F)CS1(=O)=O [Example 1],< 5 nM
2,CC1(C)C(=N)N[C@](C)(c2cc(NC(=O)c3ncc(F)cc3F)ccc2F)CS1(=O)=O [Example 2],< 5 nM

# Same assay, conditions: read-out: BACE1 % Inh. at 10 μM, at 10 μM
row,inhibition at 10 µM,Structure (SMILES)
1,23%,CN(C)CC(=O)Nc1ccc(F)c([C@]2(C)CS(=O)(=O)C(C)(C)C(=N)N2)c1 [Example 9ay]
2,48%,CC1(C)C(=N)N[C@](C)(c2cc(NC(=O)C3CCOCC3)cc(F)c2F)CS1(=O)=O [Example 9bb]
3,48%,CN(C)CC(=O)Nc1cc(F)c(F)c([C@]2(C)CS(=O)(=O)C(C)(C)C(=N)N2)c1 [Example 9bw]

# Same assay, conditions: read-out: BACE1 Ki; Ki calculated from IC50 using the Cheng-Prusoff equation
row,Ki,Structure (SMILES)
1,4.6 nM,COc1ccc(C(=O)Nc2ccc(F)c([C@]3(C)CS(=O)(=O)C(C)(C)C(=N)N3)c2)nc1 [Example 9a]
2,35.4 nM,CC1(C)C(=N)N[C@](C)(c2c(F)c(F)cc(NC(=O)c3ccc(F)cn3)c2F)CS1(=O)=O [Example 9aa]
3,9.6 nM,CC1(C)C(=N)N[C@](C)(c2c(F)c(F)cc(NC(=O)c3ccc(Cl)cn3)c2F)CS1(=O)=O [Example 9ab]
4,739 nM,CC1(C(=O)Nc2ccc(F)c([C@]3(C)CS(=O)(=O)C(C)(C)C(=N)N3)c2)COC1 [Example 9af]
5,663 nM,CC1(C)C(=N)N[C@](C)(c2cc(NC(=O)CC(F)(F)F)ccc2F)CS1(=O)=O [Example 9ag]
6,210 nM,CC1(C)C(=N)N[C@](C)(c2cc(NC(=O)C3(C#N)CC3)ccc2F)CS1(=O)=O [Example 9ah]
7,1490 nM,CC1(C(=O)Nc2ccc(F)c([C@]3(C)CS(=O)(=O)C(C)(C)C(=N)N3)c2)CC1 [Example 9aj]
8,26 nM,Cc1cnc(C(=O)Nc2ccc(F)c([C@]3(C)CS(=O)(=O)C(C)(C)C(=N)N3)c2)cn1 [Example 9ak]
9,172 nM,CC1(C)C(=N)N[C@](C)(c2cc(NC(=O)[C@H]3CCCO3)ccc2F)CS1(=O)=O [Example 9al]
10,359 nM,CC1(C)C(=N)N[C@](C)(c2cc(NC(=O)C3CC3)ccc2F)CS1(=O)=O [Example 9am]
11,1440 nM,CC(=O)Nc1ccc(F)c([C@]2(C)CS(=O)(=O)C(C)(C)C(=N)N2)c1 [Example 9an]
12,3240 nM,Cc1noc(CC(=O)Nc2ccc(F)c([C@]3(C)CS(=O)(=O)C(C)(C)C(=N)N3)c2)n1 [Example 9ao]
13,39 nM,CC1(C)C(=N)N[C@](C)(c2cc(NC(=O)c3cocn3)ccc2F)CS1(=O)=O [Example 9ap]
14,476 nM,CC1(C)C(=N)N[C@](C)(c2cc(NC(=O)C3CCC3)ccc2F)CS1(=O)=O [Example 9aq]
15,915 nM,CC1(C)C(=N)N[C@](C)(c2cc(NC(=O)CC3CC3)ccc2F)CS1(=O)=O [Example 9ar]
16,521 nM,CCC(=O)Nc1ccc(F)c([C@]2(C)CS(=O)(=O)C(C)(C)C(=N)N2)c1 [Example 9as]
17,195 nM,CC1(C)C(=N)N[C@](C)(c2cc(NC(=O)C(F)F)ccc2F)CS1(=O)=O [Example 9au]
18,8580 nM,CC1(C)C(=N)N[C@](C)(c2cc(NC(=O)C3CCOCC3)ccc2F)CS1(=O)=O [Example 9av]

row,Ki,Structure (SMILES)
1,708 nM,CC1(C(=O)Nc2cc(F)c(F)c([C@]3(C)CS(=O)(=O)C(C)(C)C(=N)N3)c2)CC1 [Example 9az]
2,< 0.5 nM,CC1(C)C(=N)N[C@](C)(c2cc(NC(=O)c3ccc(C#N)cn3)ccc2F)CS1(=O)=O [Example 9b]
3,703 nM,CC1(C)C(=N)N[C@](C)(c2cc(NC(=O)CC(F)(F)F)cc(F)c2F)CS1(=O)=O [Example 9bc]
4,429 nM,CCC(=O)Nc1cc(F)c(F)c([C@]2(C)CS(=O)(=O)C(C)(C)C(=N)N2)c1 [Example 9be]
5,485 nM,CC1(C)C(=N)N[C@](C)(c2cc(NC(=O)C3(C#N)CC3)cc(F)c2F)CS1(=O)=O [Example 9bj]
6,218 nM,CC1(C)C(=N)N[C@](C)(c2cc(NC(=O)[C@H]3CCCO3)cc(F)c2F)CS1(=O)=O [Example 9bm]
7,1020 nM,CC(=O)Nc1cc(F)c(F)c([C@]2(C)CS(=O)(=O)C(C)(C)C(=N)N2)c1 [Example 9bn]
8,1150 nM,CC1(C(=O)Nc2cc(F)c(F)c([C@]3(C)CS(=O)(=O)C(C)(C)C(=N)N3)c2)COC1 [Example 9bp]
9,4960 nM,Cc1noc(CC(=O)Nc2cc(F)c(F)c([C@]3(C)CS(=O)(=O)C(C)(C)C(=N)N3)c2)n1 [Example 9bq]
10,610 nM,CC1(C)C(=N)N[C@](C)(c2cc(NC(=O)C3CCC3(F)F)cc(F)c2F)CS1(=O)=O (stereo partly drawn) [Example 9br]
11,171 nM,CC1(C)C(=N)N[C@](C)(c2cc(NC(=O)c3ccno3)cc(F)c2F)CS1(=O)=O [Example 9bs]
12,721 nM,CC1(C)C(=N)N[C@](C)(c2cc(NC(=O)C3CCC3)cc(F)c2F)CS1(=O)=O [Example 9bt]
13,1340 nM,CC1(C)C(=N)N[C@](C)(c2cc(NC(=O)CC3CC3)cc(F)c2F)CS1(=O)=O [Example 9bv]
14,7070 nM,CC1(C)C(=N)N[C@](C)(c2cc(NC(=O)Cc3ncccn3)cc(F)c2F)CS1(=O)=O [Example 9bx]
15,0.6 nM,CC1(C)C(=N)N[C@](C)(c2cc(NC(=O)c3ccc(OC(F)F)cn3)ccc2F)CS1(=O)=O [Example 9c]
16,48 nM,CC1(C)C(=N)N[C@](C)(c2nc(NC(=O)c3ccc(F)cn3)ccc2F)CS1(=O)=O [Example 9cd]
17,55.1 nM,COc1ccc(C(=O)Nc2ccc(F)c([C@]3(C)CS(=O)(=O)C(C)(C)C(=N)N3)n2)nc1 [Example 9ce]

# Further lines, the compound ahead of its results:
row,Structure (SMILES),Ki
1,CC1(C)C(=N)N[C@](C)(c2cc(NC(=O)c3ccc(F)cn3)ccc2F)CS1(=O)=O [Example 1],1.2 nM
2,CC1(C)C(=N)N[C@](C)(c2cc(NC(=O)c3ncc(F)cc3F)ccc2F)CS1(=O)=O [Example 2],0.9 nM
3,Cc1ccc(C(=O)Nc2ccc(F)c([C@]3(C)CS(=O)(=O)C(C)(C)C(=N)N3)c2)nc1 [Example 4],8 nM
4,CC1(C)C(=N)N[C@](C)(c2cc(NC(=O)c3ccc(C(F)(F)F)cn3)ccc2F)CS1(=O)=O [Example 6],0.7 nM
5,CC1(C)C(=N)N[C@](C)(c2cc(NC(=O)c3ccc(Cl)cc3)ccc2F)CS1(=O)=O [Example 8],19 nM
6,CC1(C)C(=N)N[C@](C)(c2cc(NC(=O)c3ncc(Cl)cc3Cl)ccc2F)CS1(=O)=O [Example 9],< 0.5 nM

# Same assay, conditions: read-out: BACE1 inhibition, % Inh. at 10 μM, at 10 μM
row,inhibition at 10 µM,Structure (SMILES)
1,45%,CC1(C)C(=N)N[C@](C)(c2c(F)c(F)cc([N+](=O)[O-])c2F)CS1(=O)=O [Entry 15]
2,37%,C[C@@]1(c2cc(N)ccc2F)CS(=O)(=O)[C@](C)(CC(F)(F)F)C(=N)N1 [Entry 36]
3,38%,C=CC[C@]1(C)C(=N)N[C@](C)(c2cc(N)ccc2F)CS1(=O)=O [Entry 44]
4,37%,C[C@@]1(c2cc(N)ccc2F)CS(=O)(=O)[C@](C)(CC2CC2)C(=N)N1 [Entry 48]
5,44%,C[C@@]1(c2ccccn2)C(=N)N[C@](C)(c2sc(Br)cc2F)CS1(=O)=O [Entry 86]
6,45%,CC1(C)C(=N)N[C@](C)(c2cc([N+](=O)[O-])ccc2F)CS1(=O)=O [Example 2-1]

# Same assay, conditions: read-out: BACE1 inhibition, Ki
row,Ki,Structure (SMILES)
1,3600 nM,CC1(C)C(=N)N[C@](C)(c2c(F)ccc(N)c2F)CS1(=O)=O [Entry 13]
2,2400 nM,CC1(C)C(=N)N[C@](C)(c2c(F)ccc(F)c2F)CS1(=O)=O [Entry 14]
3,4800 nM,CC(C)[C@@]1(C)C(=N)N[C@](C)(c2cc(N)ccc2F)CS1(=O)=O [Entry 27]
4,7300 nM,CC(C)[C@]1(C)C(=N)N[C@](C)(c2cc(N)ccc2F)CS1(=O)=O [Entry 28]
5,3000 nM,C[C@]1(CC(F)(F)F)C(=N)N[C@](C)(c2cc(N)ccc2F)CS1(=O)=O [Entry 35]
6,1700 nM,C[C@@]1(c2cc(N)ccc2F)CS(=O)(=O)[C@@](C)(C2CCC2)C(=N)N1 [Entry 39]
7,1800 nM,C[C@]1(CC2CC2)C(=N)N[C@](C)(c2cc(N)ccc2F)CS1(=O)=O [Entry 47]
8,500 nM,C[C@@]1(c2cc(N)ccc2F)CS(=O)(=O)[C@@](C)(C2CCOCC2)C(=N)N1 [Entry 50]
9,1300 nM,C[C@]1(CC2CCOCC2)C(=N)N[C@](C)(c2cc(N)ccc2F)CS1(=O)=O [Entry 53]
10,1100 nM,C[C@@]1(c2cc(N)ccc2F)CS(=O)(=O)[C@@](C)(c2cccc(F)c2)C(=N)N1 [Entry 60]
11,600 nM,C[C@@]1(c2cc([N+](=O)[O-])ccc2F)CS(=O)(=O)[C@@](C)(c2cccc(C(F)(F)F)c2)C(=N)N1 [Entry 66]
12,1400 nM,C[C@@]1(c2cc(N)ccc2F)CS(=O)(=O)[C@@](C)(c2cccc(C(F)(F)F)c2)C(=N)N1 [Entry 68]
13,1400 nM,C[C@@]1(c2cc(N)ccc2F)CS(=O)(=O)[C@@](C)(c2cc(C(F)(F)F)ccn2)C(=N)N1 [Entry 72]
14,4600 nM,C[C@@]1(c2cc(N)ccc2F)CS(=O)(=O)[C@@](C)(c2cc(C(F)(F)F)ccn2)C(=N)N1 [Entry 73]
15,6600 nM,C[C@@]1(c2cc(N)ccc2F)CS(=O)(=O)[C@@](C)(c2ccccn2)C(=N)N1 [Entry 76]
16,1500 nM,C[C@@]1(c2sc(Br)cc2F)CS(=O)(=O)[C@@](C)(c2ccccn2)C(=N)N1 [Entry 85]
17,600 nM,C[C@@]1(c2sc(Br)cc2F)CS(=O)(=O)[C@@](C)(c2cccc(F)c2)C(=N)N1 [Entry 87]
18,1900 nM,COCC1(COC)C(=N)N[C@](C)(c2sc(Br)cc2Cl)CS1(=O)=O [Entry 89]
19,3100 nM,CC1(C)C(=N)N[C@](C)(c2cc(N)cc(Cl)c2F)CS1(=O)=O [Example 2A-7]
20,500 nM,C[C@]1(CC(F)(F)F)C(=N)N[C@](C)(c2sc(Br)cc2F)CS1(=O)=O [Example 6F-3a]

row,Structure (SMILES),Ki
1,CC1(C)C(=N)N[C@](C)(c2cccc(Cl)c2F)CS1(=O)=O [Entry 7],1400 nM
2,CC1(C)C(=N)N[C@](C)(c2c(F)cccc2F)CS1(=O)=O [Entry 11],1300 nM
3,CC1(C)C(=N)N[C@](C)(c2nc(N)ccc2F)CS1(=O)=O [Example 2F-3],6200 nM
4,CC1(C)C(=N)N[C@](C)(c2cc(Br)cs2)CS1(=O)=O [Example 6C-1],4700 nM
